In the NIST ThermoML archive (doi:10.1016/j.jct.2011.02.008):
± gives the expanded uncertainty stated by the source.

Assay: xn = mol fraction of the nth substance listed
Details: Liquid, Vibrating tube method

COC(=O)c1ccccc1 [methyl benzoate] + C1CCCCC1
mass density [kg/m3]
Details	x1 = 0.0985	x1 = 0.1963	x1 = 0.2939	x1 = 0.3942	x1 = 0.4955	x1 = 0.596	x1 = 0.6975	x1 = 0.7993	x1 = 0.8982
298.15 K, 10000 kPa	–	–	–	–	–	–	–	1031.4 ± 2.4	1060 ± 2.4
298.15 K, 15000 kPa	817.1 ± 2.4	848.6 ± 2.4	880.1 ± 2.4	911.7 ± 2.4	943.2 ± 2.4	974.8 ± 2.4	1005.4 ± 2.4	1034.6 ± 2.4	1063.1 ± 2.4
298.15 K, 20000 kPa	820.8 ± 2.4	852.2 ± 2.4	883.7 ± 2.4	915.2 ± 2.4	946.6 ± 2.4	978.2 ± 2.4	1008.5 ± 2.4	1037.7 ± 2.4	1066.1 ± 2.4
298.15 K, 25000 kPa	824.4 ± 2.4	855.8 ± 2.4	887.2 ± 2.4	918.6 ± 2.4	949.9 ± 2.4	981.4 ± 2.4	1011.7 ± 2.4	1040.7 ± 2.4	1069 ± 2.4
298.15 K, 30000 kPa	827.9 ± 2.4	859.2 ± 2.4	890.5 ± 2.4	921.9 ± 2.4	953.1 ± 2.4	984.5 ± 2.4	1014.7 ± 2.4	1043.6 ± 2.4	1071.9 ± 2.4
298.15 K, 35000 kPa	831.2 ± 2.4	862.5 ± 2.4	893.8 ± 2.4	925 ± 2.4	956.2 ± 2.4	987.5 ± 2.4	1017.7 ± 2.4	1046.5 ± 2.4	1074.7 ± 2.4
298.15 K, 40000 kPa	834.4 ± 2.4	865.7 ± 2.4	896.9 ± 2.4	928.1 ± 2.4	959.2 ± 2.4	990.5 ± 2.4	1020.5 ± 2.4	1049.3 ± 2.4	1077.4 ± 2.4
298.15 K, 45000 kPa	837.5 ± 2.4	868.8 ± 2.4	900 ± 2.4	931.1 ± 2.4	962.1 ± 2.4	993.4 ± 2.4	1023.3 ± 2.4	1052.1 ± 2.4	1080.1 ± 2.4
298.15 K, 50000 kPa	840.5 ± 2.4	871.8 ± 2.4	902.9 ± 2.4	934 ± 2.4	965 ± 2.4	996.2 ± 2.4	1026.1 ± 2.4	1054.7 ± 2.4	1082.7 ± 2.4
298.15 K, 55000 kPa	843.4 ± 2.4	874.7 ± 2.4	905.8 ± 2.4	936.9 ± 2.4	967.8 ± 2.4	999 ± 2.4	1028.8 ± 2.4	1057.4 ± 2.4	1085.3 ± 2.4
298.15 K, 60000 kPa	846.1 ± 2.4	877.3 ± 2.4	908.6 ± 2.4	939.5 ± 2.4	970.3 ± 2.4	1001.4 ± 2.4	1031.3 ± 2.4	1059.9 ± 2.4	1087.8 ± 2.4
308.15 K, 100 kPa	795.4 ± 2.4	827 ± 2.4	858.8 ± 2.4	890.8 ± 2.4	922.6 ± 2.4	954.7 ± 2.4	985.6 ± 2.4	1015.2 ± 2.4	1044.1 ± 2.4
308.15 K, 1000 kPa	796.2 ± 2.4	827.8 ± 2.4	859.6 ± 2.4	891.5 ± 2.4	923.4 ± 2.4	955.4 ± 2.4	986.3 ± 2.4	1015.9 ± 2.4	1044.7 ± 2.4
308.15 K, 5000 kPa	799.8 ± 2.4	831.2 ± 2.4	863.1 ± 2.4	894.9 ± 2.4	926.6 ± 2.4	958.5 ± 2.4	989.3 ± 2.4	1018.7 ± 2.4	1047.5 ± 2.4
308.15 K, 10000 kPa	804.3 ± 2.4	835.7 ± 2.4	867.2 ± 2.4	898.9 ± 2.4	930.5 ± 2.4	962.3 ± 2.4	992.9 ± 2.4	1022.2 ± 2.4	1050.8 ± 2.4
308.15 K, 15000 kPa	808.3 ± 2.4	839.8 ± 2.4	871.2 ± 2.4	902.8 ± 2.4	934.2 ± 2.4	965.9 ± 2.4	996.4 ± 2.4	1025.6 ± 2.4	1054.1 ± 2.4
308.15 K, 20000 kPa	812.3 ± 2.4	843.6 ± 2.4	875 ± 2.4	906.5 ± 2.4	937.8 ± 2.4	969.4 ± 2.4	999.8 ± 2.4	1028.8 ± 2.4	1057.2 ± 2.4
308.15 K, 25000 kPa	816.1 ± 2.4	847.3 ± 2.4	878.7 ± 2.4	910 ± 2.4	941.3 ± 2.4	972.8 ± 2.4	1003 ± 2.4	1032 ± 2.4	1060.3 ± 2.4
308.15 K, 30000 kPa	819.7 ± 2.4	850.9 ± 2.4	882.2 ± 2.4	913.5 ± 2.4	944.6 ± 2.4	976 ± 2.4	1006.2 ± 2.4	1035 ± 2.4	1063.3 ± 2.4
308.15 K, 35000 kPa	823.2 ± 2.4	854.4 ± 2.4	885.6 ± 2.4	916.8 ± 2.4	947.9 ± 2.4	979.2 ± 2.4	1009.3 ± 2.4	1038 ± 2.4	1066.2 ± 2.4
308.15 K, 40000 kPa	826.5 ± 2.4	857.7 ± 2.4	888.9 ± 2.4	920 ± 2.4	951 ± 2.4	982.3 ± 2.4	1012.3 ± 2.4	1041 ± 2.4	1069 ± 2.4
308.15 K, 45000 kPa	829.8 ± 2.4	861 ± 2.4	892.1 ± 2.4	923.2 ± 2.4	954.1 ± 2.4	985.3 ± 2.4	1015.2 ± 2.4	1043.8 ± 2.4	1071.8 ± 2.4
308.15 K, 50000 kPa	833 ± 2.4	864.1 ± 2.4	895.1 ± 2.4	926.2 ± 2.4	957.1 ± 2.4	988.2 ± 2.4	1018.1 ± 2.4	1046.6 ± 2.4	1074.6 ± 2.4
308.15 K, 55000 kPa	836 ± 2.4	867.1 ± 2.4	898.2 ± 2.4	929.2 ± 2.4	960 ± 2.4	991.1 ± 2.4	1020.9 ± 2.4	1049.3 ± 2.4	1077.2 ± 2.4
308.15 K, 60000 kPa	838.8 ± 2.4	869.5 ± 2.4	900.9 ± 2.4	931.9 ± 2.4	962.7 ± 2.4	993.7 ± 2.4	1023.4 ± 2.4	1051.9 ± 2.4	1079.9 ± 2.4
318.15 K, 100 kPa	785.8 ± 2.4	817.4 ± 2.4	849.2 ± 2.4	881.3 ± 2.4	913.1 ± 2.4	945.2 ± 2.4	976.1 ± 2.4	1005.8 ± 2.4	1034.6 ± 2.4
318.15 K, 1000 kPa	786.8 ± 2.4	818.3 ± 2.4	850.1 ± 2.4	882.1 ± 2.4	913.9 ± 2.4	945.9 ± 2.4	976.8 ± 2.4	1006.5 ± 2.4	1035.2 ± 2.4
318.15 K, 5000 kPa	790.7 ± 2.4	822 ± 2.4	853.8 ± 2.4	885.7 ± 2.4	917.3 ± 2.4	949.3 ± 2.4	980 ± 2.4	1009.5 ± 2.4	1038.2 ± 2.4
318.15 K, 10000 kPa	795.2 ± 2.4	826.6 ± 2.4	858.2 ± 2.4	889.9 ± 2.4	921.4 ± 2.4	953.2 ± 2.4	983.8 ± 2.4	1013.1 ± 2.4	1041.7 ± 2.4
318.15 K, 15000 kPa	799.7 ± 2.4	830.9 ± 2.4	862.4 ± 2.4	893.9 ± 2.4	925.4 ± 2.4	957 ± 2.4	987.5 ± 2.4	1016.7 ± 2.4	1045.1 ± 2.4
318.15 K, 20000 kPa	803.8 ± 2.4	835.1 ± 2.4	866.4 ± 2.4	897.8 ± 2.4	929.1 ± 2.4	960.7 ± 2.4	991 ± 2.4	1020.1 ± 2.4	1048.4 ± 2.4
318.15 K, 25000 kPa	807.8 ± 2.4	839 ± 2.4	870.2 ± 2.4	901.5 ± 2.4	932.7 ± 2.4	964.2 ± 2.4	994.4 ± 2.4	1023.3 ± 2.4	1051.6 ± 2.4
318.15 K, 30000 kPa	811.6 ± 2.4	842.8 ± 2.4	–	–	–	–	–	–	–
